Data as given in patent US7105529B2, “Substituted oxindole derivatives as protein tyrosine and as protein serine/threonine kinase inhibitors and compositions and methods of treating chemotherapy and radiation therapy side effects” (SmithKline Beecham Corporation, priority 1997, dated 2006).
One block for each molecule: values may come before it.

Experiments:
[1] = test system: HDF normal diploid fibroblast cells; assay: FACS assay (cell death), HDF; format: cell-based; conditions: 50% cell death, 72 h
Method: These assays allow determination of both cell death and changes in cell cycle profile in cells following treatment of the compound. The assay is performend as follows: • 1. Cells are incubated in DMEM to which 10% FCS has been added in a humidified incubator at 37° C. and 5% by volume of CO2 in air. The cells are innoculated in 6-well plates at a density of 0.5–5×10^5 cells per well. • 2. The test compound is added in serial dilutions 24–36 h after plating in 0.5% DMSO. The plates are then incubated a further 72 h in the presence of the compound. During this time, cells in control cultures undergo at least three cell divisions. • 3. After incubation, the media is collected and cells are harvested by trypsinization. The cells and media are pooled and pelleted by centrifugation. • 4. The cell pellet is fixed in a final volume of 3 mL of 50% ice cold MeOH and incubated for a minimum of 30 min at −20° C. • 5. The cells are pelleted by centrifugation and resuspended in 0.5 mL PBS containing 1%FCS, […] Propidium Iodide (PI) and 5 mg/mL RNase A and incubated 30 min at 37° C. in the dark. • 6. The samples are analysed by flow cytometry using the relative incorporation of PI as a measure of DNA content of each cell. The % Dead cells is recorded as % of events with less than 2N DNA. […] HDF are normal diploid fibroblast cells. RKO are colon adenocarcinoma cells and MES/SA are ovarian carcinoma cells.

[2] = test system: MDA-MB468 (human breast carcinoma cell line); assay: MTT assay, MDA MB468; format: cell-based
Method: Compounds are tested for their ability to inhibit cell proliferation and cell viability. The metabolic conversion of 3-(4,5-dimethylthiazol-2-yl)-2,5-diphenyltetrazolium bromide (MTT, Sigma #M2128) to a reduced form is a commonly used measure of cellular viability. Following is the procedure: Cells are maintained in 75 cm^2 tissue culture flasks until ready for use. The cells are grown and plated for the assay in Dulbecco's modified Eagle's media (DMEM) containing 10% fetal bovine serum. For example, the following cell lines can be used: a) human foreskin fibroblasts (HFF); b) HT29 (human colon carcinoma cell line); c) MDA-MB468 (human breast carcinoma cell line); d) RKO (human colon adenocarcinoma cell line); e) SW620 (human colon carcinoma cell line); f A549 (human lung carcinoma cell line); and g) MIA PACA (human pancreatic carcinoma cell line). Cells are maintained at 37° C. in 10% CO2, 90% humidified air. Cells are plated in 96-well tissue culture plates at the densities listed below. 100 μL of cell suspension is added to each well of the 96-well plate except the top row of the plate which contains no cells and serves as a reference for the spectrophotometer. [table] […] Quantitation of metabolic reduction of MTT in each plate is performed by reading optical density at 570 nm wavelength on a Molecular Devices UVmax microplate reader.

CDK1 = CDK1 (Homo sapiens, UniProt P06493); assay: CDK1 substrate phosphorylation assay; format: biochemical
Chain of CDK1 (P06493 whole entry): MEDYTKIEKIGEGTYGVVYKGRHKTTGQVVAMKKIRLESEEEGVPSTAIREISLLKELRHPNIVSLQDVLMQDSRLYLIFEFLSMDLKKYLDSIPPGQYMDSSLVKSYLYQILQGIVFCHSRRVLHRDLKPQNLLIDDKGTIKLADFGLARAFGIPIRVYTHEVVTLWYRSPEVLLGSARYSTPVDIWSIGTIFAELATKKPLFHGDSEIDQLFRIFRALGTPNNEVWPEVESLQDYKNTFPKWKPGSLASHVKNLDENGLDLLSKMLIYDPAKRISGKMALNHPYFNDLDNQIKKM
Chain of CDK1 (P14635 whole entry partner): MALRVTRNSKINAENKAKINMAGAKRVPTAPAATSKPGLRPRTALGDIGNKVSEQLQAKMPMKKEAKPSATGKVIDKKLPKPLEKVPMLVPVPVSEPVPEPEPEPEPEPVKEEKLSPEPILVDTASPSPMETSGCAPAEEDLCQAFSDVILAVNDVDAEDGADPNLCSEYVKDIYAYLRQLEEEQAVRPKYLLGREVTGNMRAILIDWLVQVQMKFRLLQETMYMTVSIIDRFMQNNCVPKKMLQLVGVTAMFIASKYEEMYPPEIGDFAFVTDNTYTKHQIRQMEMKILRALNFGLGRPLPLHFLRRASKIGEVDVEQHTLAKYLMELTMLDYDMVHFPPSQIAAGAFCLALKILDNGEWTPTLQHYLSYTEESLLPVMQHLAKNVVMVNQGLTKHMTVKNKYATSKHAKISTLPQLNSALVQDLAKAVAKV
Method: Cyclin dependent protein kinase assays utilized the peptides Biotin-aminohexyl-[…] and Biotin-aminohexyl-[…]-NH2 as phosphoryl group acceptors. CDK1 and CDK2 were both expressed utilizing a baculovirus expression system and were partially purified to comprise 20–80% of total protein, with no detectable competing reactions present. Typically, assays were performed by incubating either enzyme (0.2–10 nM), with and without inhibitor, one of the two peptide substrates (1–10 nM), [γ-^32P]ATP (1–20 nM), and 10–20 mM Mg^2+ for periods of time generally within the range 10–120 min. Reactions were terminated with 0.2–2 volumes of either 20% acetic acid or 50–100 mM EDTA buffered to pH 7 (substrate consumption <20%). The buffer employed in enzyme assays was either 30 mM HEPES 7.4 containing 0.15 M NaCl and 5% DMSO, the buffer 50 mM MOPS 7.0 containing 0.15 M NaCl and 5% DMSO, or the buffer 100 mM HEPES pH 7.5 containing 0.1 mg/mL BSA and 5% DMSO. Inhibitors were diluted in 100% DMSO prior to addition into the assay. […]

IC50 ([2]; Homo sapiens, MDA-MB-468, 72 h): 1100 to 5000 nM
SMILES: COC(=O)c1ccc2c(c1)/C(=C/Nc1ccc(S(N)(=O)=O)cc1)C(=O)N2 [Example 27]
IC50 [1]: > 5000 nM

SMILES: NS(=O)(=O)c1ccc(NN=C2C(=O)Nc3ccc(-c4cnco4)cc32)cc1 [Example 36]
IC50 (CDK1): 1 to 10 nM
IC50 [1]: > 5000 nM

SMILES: O=C1Nc2ccc3ncsc3c2C1=CNc1ccc(S(=O)(=O)NCc2ccncc2)cc1 [Example 104, 4-[(7-Oxo-6,7-dihydro-1-thia-3,6-diaza-as-indacen-8-ylidenemethyl)amino]-N-pyridinyl-4-yl-methyl benzenesulfonamide]
IC50 (CDK1): 11 to 50 nM
IC50 ([2]; 72 h): 1100 to 5000 nM
